Values after ≈ are worked out from the molar mass of the structure shown.
Columns and labels:
[1] = Aqueous solubility of the compound
[2] = Percent of unbound ligand in rat plasma; assay type: ADME, organism-based
[3] = test system: MCF7; test: Antiproliferative activity against MCF7 cell line; assay type: functional, cell-based; settings: Homo sapiens
[4] = target: T1, Aurora kinase A (Homo sapiens, UniProt O14965); test: Inhibitory activity against Aurora A
T1 sequence (O14965 whole entry): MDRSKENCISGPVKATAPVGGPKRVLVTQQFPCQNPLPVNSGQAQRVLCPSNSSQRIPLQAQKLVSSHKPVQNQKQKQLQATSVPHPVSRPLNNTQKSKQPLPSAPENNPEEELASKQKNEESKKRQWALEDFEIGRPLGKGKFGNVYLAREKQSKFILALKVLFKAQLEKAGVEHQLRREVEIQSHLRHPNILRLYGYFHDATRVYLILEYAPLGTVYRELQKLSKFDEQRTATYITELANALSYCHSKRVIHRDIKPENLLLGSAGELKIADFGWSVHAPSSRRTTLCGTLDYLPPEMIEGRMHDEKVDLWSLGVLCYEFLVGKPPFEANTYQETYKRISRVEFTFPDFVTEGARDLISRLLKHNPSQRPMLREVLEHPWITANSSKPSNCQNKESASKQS

[5] = Distribution coefficient of the compound, log D at pH 7.4; assay type: physicochemical; settings: octanol/water

| Compound | solubility [1] | fraction unbound [2] | IC50 [3] | IC50 [4] | logD [5] |
| --- | --- | --- | --- | --- | --- |
| COc1cc2c(Nc3ccc(NC(=O)c4ccccc4)cc3)ncnc2cc1OCCCN1CCOCC1 | 2.5 µM (≈ 1.28 µg/mL) | 0.003 | 198 nM |  |  |
| COc1cc2c(Nc3cnc(NC(=O)c4ccc(C)c(Br)c4)nc3)ncnc2cc1OCCCN1CCOCC1 |  |  |  | 70 nM |  |
| COc1cc2c(Nc3cnc(NC(=O)c4ccncc4)nc3)ncnc2cc1OCCCN1CCOCC1 |  |  |  | 690 nM |  |
| COc1cc2c(Nc3cnc(NC(=O)c4cccc(Cl)c4)nc3)ncnc2cc1OCCCN1CCCCC1 | 3600 µM (≈ 1970 µg/mL) |  | 24 nM | 0.8 nM |  |
| CCc1ccc(C(=O)Nc2ncc(Nc3ncnc4cc(OCCCN5CCOCC5)c(OC)cc34)cn2)cc1 |  |  |  | 85 nM |  |
| CCCCC(=O)Nc1ncc(Nc2ncnc3cc(OCCCN4CCOCC4)c(OC)cc23)cn1 |  |  |  | 17 nM |  |
| COc1cc2c(Nc3cnc(NC(=O)c4cccc(Cl)c4)nc3)ncnc2cc1OCCCN1CCOCC1 |  |  | 80 nM | < 0.1 nM |  |
| COc1cc2c(Nc3ncc(NC(=O)c4ccccc4)cn3)ncnc2cc1OCCCN1CCOCC1 |  |  |  | 629 nM |  |
| CCCN(CCC)S(=O)(=O)c1ccc(C(=O)Nc2ncc(Nc3ncnc4cc(OCCCN5CCOCC5)c(OC)cc34)cn2)cc1 |  |  |  | 3900 nM |  |
| COc1cc2c(Nc3cnc(NC(=O)c4ccccc4)nc3)ncnc2cc1OCCCN1CCOCC1 |  | 0.045 | 210 nM | 3 nM | 2.7 |
| COc1cc2c(Nc3cnc(NC(=O)c4ccc(F)c(Cl)c4)nc3)ncnc2cc1OCCCN1CCOCC1 |  | 0.004 | 20 nM | 0.15 nM |  |
| COc1cc2c(Nc3cnc(NC(=O)c4ccccc4)nc3)ncnc2cc1OC[C@@H](O)CN1CCCCC1 | 1500 µM (≈ 794 µg/mL) |  |  |  |  |
| COc1cc2ncnc(Nc3ccc(NC(=O)c4ccccc4)cc3)c2cc1OC [ANILINOQUINAZOLINE1] |  |  | 1250 nM | 393 nM | 3.7 |
